According to ChEMBL document CHEMBL1201862, “PubChem BioAssay data set” (2004):
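Protocol summary: plate cells (96-well), add compound at 5 concentrations, incubate 48 h, interpolate endpoints linearly. GI50: concentration for 50% inhibition of growth.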 Active and inactive are the calls of the source. Cut-off read from the data, not from the text of the source: active = GI50 up to about 1.1 µM and inactive = higher.

Experiments:
Test in all cases: NCI-60 cell line screen, 48 h
PC-3 = test system: PC-3
KM12 = test system: KM12
A549 = test system: A549
OVCAR-4 = test system: OVCAR-4
UACC-257 = test system: UACC-257
MCF7 = test system: MCF7
Malme-3M = test system: Malme-3M
ACHN = test system: ACHN
UO-31 = test system: UO-31
NCI-H226 = test system: NCI-H226
OVCAR-8 = test system: OVCAR-8
SF-295 = test system: SF-295
SW-620 = test system: SW-620
NCI-H23 = test system: NCI-H23
TK-10 = test system: TK-10
UACC-62 = test system: UACC-62
SNB-75 = test system: SNB-75
MDA-N = test system: MDA-N
HCT-15 = test system: HCT-15
NCI/ADR-RES = test system: NCI/ADR-RES

Row | SMILES | GI50 (PC-3) | GI50 (KM12) | GI50 (A549) | GI50 (OVCAR-4) | GI50 (UACC-257) | GI50 (MCF7) | GI50 (Malme-3M) | GI50 (ACHN) | GI50 (UO-31) | GI50 (NCI-H226) | GI50 (OVCAR-8) | GI50 (SF-295) | GI50 (SW-620) | GI50 (NCI-H23) | GI50 (TK-10) | GI50 (UACC-62) | GI50 (SNB-75) | GI50 (MDA-N) | GI50 (HCT-15) [µM] | GI50 (NCI/ADR-RES)
1 | C=C1CC(Cn2cc(Br)c(=O)[nH]c2=O)(c2ccc(Br)cc2)OC1=O (stereo not given) | 3.56 µM (inactive) | 4.02 µM (inactive) | 14.8 µM (inactive) | 1.85 µM (inactive) | 1.82 µM (inactive) | 2.61 µM (inactive) | 1.87 µM (inactive) | 3.66 µM (inactive) | 14.1 µM (inactive) | 13.4 µM (inactive) | 15.3 µM (inactive) | 12.1 µM (inactive) | 1.49 µM (inactive) | 3.81 µM (inactive) | 7.23 µM (inactive) | 2.4 µM (inactive) | 13.2 µM (inactive) | 2.37 µM (inactive) | 1.83 | 2.59 µM (inactive)
2 | CN(CC(=O)O)CC(=O)O | > 100 µM (inactive) | > 100 µM (inactive) | > 100 µM (inactive) | > 100 µM (inactive) | > 100 µM (inactive) | > 100 µM (inactive) | > 100 µM (inactive) | > 100 µM (inactive) | > 100 µM (inactive) | > 100 µM (inactive) | > 100 µM (inactive) | > 100 µM (inactive) | > 100 µM (inactive) | > 100 µM (inactive) | > 100 µM (inactive) | > 100 µM (inactive) | 0.427 µM (active) | > 100 µM (inactive) | > 100 | > 100 µM (inactive)
3 | NC1CC(=O)c2c(I)sc(I)c21 (stereo not given) | 18.7 µM (inactive) | 15.4 µM (inactive) | 29.8 µM (inactive) | 20.1 µM (inactive) | 19.8 µM (inactive) | 25.4 µM (inactive) | 13.7 µM (inactive) | 20.9 µM (inactive) | 19.2 µM (inactive) | 19.1 µM (inactive) | 20.6 µM (inactive) | 21 µM (inactive) | 11.6 µM (inactive) | 17.1 µM (inactive) | 19 µM (inactive) | 16.7 µM (inactive) | 20.6 µM (inactive) | 19.7 µM (inactive) | 9.31 | 26.9 µM (inactive)
4 | CCc1ccc2nccc(NCCCN(C)C)c2c1[N+](=O)[O-] | 70 µM (inactive) | > 100 µM (inactive) | > 100 µM (inactive) | 90.2 µM (inactive) | 32.3 µM (inactive) | 72.9 µM (inactive) | > 100 µM (inactive) | > 100 µM (inactive) | 86.3 µM (inactive) | > 100 µM (inactive) | > 100 µM (inactive) | 75.7 µM (inactive) | > 100 µM (inactive) | > 100 µM (inactive) | > 100 µM (inactive) | > 100 µM (inactive) | 50 µM (inactive) | 64.7 µM (inactive) | > 10 | > 100 µM (inactive)
5 | CCOP(=O)(OCC)/C(C#N)=C/c1[nH]cnc1C | > 100 µM (inactive) | > 100 µM (inactive) | > 100 µM (inactive) | > 100 µM (inactive) | > 100 µM (inactive) | > 100 µM (inactive) | > 100 µM (inactive) | > 100 µM (inactive) | > 100 µM (inactive) | > 100 µM (inactive) | > 100 µM (inactive) | > 100 µM (inactive) | > 100 µM (inactive) | > 100 µM (inactive) | > 100 µM (inactive) | > 100 µM (inactive) | > 100 µM (inactive) | > 100 µM (inactive) | > 100 | > 100 µM (inactive)
6 | CCCCN1C(=O)N(c2ccc(OCC)cc2)C2N(CCCC)C1C(C)(C)C2(C)C (stereo not given) | 23.2 µM (inactive) | 34.1 µM (inactive) | 56.4 µM (inactive) | 37.8 µM (inactive) | 27.5 µM (inactive) | 15.3 µM (inactive) | 24.2 µM (inactive) | 27.7 µM (inactive) | 27.1 µM (inactive) | 20.2 µM (inactive) | 32.3 µM (inactive) | 47.4 µM (inactive) | 32.6 µM (inactive) | 24.8 µM (inactive) | 22.5 µM (inactive) | 16.9 µM (inactive) | 37.3 µM (inactive) | 22 µM (inactive) | 26.6 | 23.5 µM (inactive)
7 | Cc1[nH]c2ccccc2c1/C=N/c1ccc(/N=C/c2c(C)[nH]c3ccccc23)cc1 | 50.4 µM (inactive) | 16.4 µM (inactive) | 80 µM (inactive) | 26.4 µM (inactive) | 67.3 µM (inactive) | 16.5 µM (inactive) | 30.8 µM (inactive) | 49.1 µM (inactive) | 77.4 µM (inactive) | 14 µM (inactive) | 29.7 µM (inactive) | 40.6 µM (inactive) | 22.9 µM (inactive) | 29.1 µM (inactive) | 90.4 µM (inactive) | 42.6 µM (inactive) | 48.3 µM (inactive) | 30.5 µM (inactive) | 32 | 80.5 µM (inactive)
8 | N#Cc1c(-c2ccccc2)cc(Nc2ccc(Cl)cc2)n2c1nc1ccccc12 | 2.56 µM (inactive) | 2.94 µM (inactive) | 1.71 µM (inactive) | 3.23 µM (inactive) | 1.91 µM (inactive) | 3.48 µM (inactive) | 5.16 µM (inactive) | 3.03 µM (inactive) | 2.49 µM (inactive) | 4.45 µM (inactive) | 2.96 µM (inactive) | 3.4 µM (inactive) | 4.84 µM (inactive) | 2.64 µM (inactive) | 4.45 µM (inactive) | 0.975 µM (active) | 5.47 µM (inactive) | 2.42 µM (inactive) | 3.37 | 2.44 µM (inactive)
9 | CCOC1OC(=O)c2cc3ccc4c(c3c(-c3ccc5c(c3)OCO5)c21)OCO4 (stereo not given) | 10.1 µM (inactive) | 4.58 µM (inactive) | 3.08 µM (inactive) | 16.7 µM (inactive) | 9.79 µM (inactive) | 9.57 µM (inactive) | > 100 µM (inactive) | 10.4 µM (inactive) | 22 µM (inactive) | 4.71 µM (inactive) | 35.7 µM (inactive) | 2.27 µM (inactive) | 6.04 µM (inactive) | 3.72 µM (inactive) | 4.75 µM (inactive) | 6.01 µM (inactive) | 1.08 µM (active) | 1.9 µM (inactive) | 4.85 | 5.13 µM (inactive)
10 | CC1=NN(C(=O)CC(=O)Nc2ccc(C)cc2)C(=O)C1/N=N\c1ccc(S(=O)(=O)c2ccc(/N=N/C3C(=O)N(C(=O)CC(=O)Nc4ccc(C)cc4)N=C3C)cc2)cc1 (stereo not given) | 72.4 µM (inactive) | 65.6 µM (inactive) | 31.6 µM (inactive) | > 100 µM (inactive) | > 100 µM (inactive) | > 100 µM (inactive) | 67 µM (inactive) | 62.8 µM (inactive) | > 100 µM (inactive) | > 100 µM (inactive) | 64.6 µM (inactive) | > 100 µM (inactive) | 32.7 µM (inactive) | > 100 µM (inactive) | > 100 µM (inactive) | 65.9 µM (inactive) | > 100 µM (inactive) | 69.7 µM (inactive) | 44.6 | > 100 µM (inactive)
